Values belong to the compound of their own block, whether it stands above or below them.
How the values were obtained:
[1] = tested on: U2OS cells (human osteosarcoma); test: Inhibition of cell proliferation, AlamarBlue fluorescent assay, U2OS; assay type: cell-based; details: 48 hours, cancer cell line
Procedure: (§1) The cancer cell lines used in this study included human lung carcinoma (A549), human breast carcinoma (BT20 and MCF-7) and human osteosarcoma (U2OS), with the normal cell lines human peripheral lung epithelial cells (HPL1A) and human mammary epithelial cells (HMEC) serving as controls. A549, BT20, MCF-7, U2OS and HMEC cells were purchased from American Type Culture Collection (ATCC, USA), and HPL1A cells were obtained from Nagoya University, Japan. A549 and BT20 were grown in RPMI-1640 (Sigma), MCF-7 was grown in Dulbecco's Modified Eagle Medium (DMEM) (Sigma) supplemented with 0.01 mg/ml human recombinant insulin (Sigma), U2OS and HMEC were grown in McCoy's 5A (ATCC), and HPL1A was grown in DMEM/F-12K (Sigma). The mediums were supplemented with 10% Fetal Bovine Serum (FBS) (Gibco), 1% penicillin and streptomycin and incubated in a humidified atmosphere with 5% CO2 at 37° C.
The proliferation inhibition potential of cis- and trans-gnetin H was determined by a fluorescence dye staining method. Cells were seeded in a 96-well tissue culture-treated plate (BD Falcon) at a density of 4000 cells/well, and treated with cis- or trans-gnetin H for 48 hours. AlamarBlue dye (Invitrogen) was used to assess the viability of cells according to the manufacturer's instructions; the fluorescent intensity was read on a SpectraMax M2e microplate reader (Molecular Devices Inc.). […]

[2] = tested on: TNF-α in LPS-stimulated THP-1 cells; test: Cytokine response by ELISA, TNF-α; assay type: cell-based, human; details: for IC50: Homo sapiens, THP-1, pretreated 1 h, LPS 4 h, ELISA; for inhibition of TNF-α: cis 12.5-50 μM, trans 8-30 μM, 20 ng/ml LPS, p<0.05
Procedure: THP-1 cells were maintained in RPMI 1640 medium supplemented with 10% complement-inactivated FBS and 1% penicillin/streptomycin (complete culture medium) at 37° C. with 5% CO2 supplemented. Cell concentrations were adjusted to desired concentrations for each experiment by centrifugation at 500×g for 5 min and resuspended in complete culture medium with 100 nM of PMA. Cell concentration was adjusted to 5×10^5 cells/ml for all assays and 2.5×10^5 cells/ml were used for NF-κB nuclear translocation assay. Cells were seeded onto 96-, 24-, or 12-well plates and incubated for 48 to 72 h to allow for differentiation. Cells were washed with serum-free RPMI 1640 medium before each experiment to remove the undifferentiated cells.
Differentiated THP-1 cells were pretreated with various concentrations of cis-gnetin H, trans-gnetin H, or 1 μM of dexamethasone for 1 h and stimulated with 20 ng/ml of LPS for 4 h. Dexamethasone is a synthetic glucocorticoid that suppresses cytokine response and was used as a positive control (Abraham et al., 2006, J. Exp. Med., 203:1883-9; Steer et al., J. Biol. Chem., 2000, 275(24):18432-40). Supernatants were collected for human cytokine ELISAs and the manufacturer's protocol was followed to assess the cytokine response. Cells remaining after the supernatant collection were tested for relative viability by Alamar Blue cytotoxicity assay as described earlier.

[3] = tested on: HMEC cells (human mammary epithelial cells); test: Inhibition of cell proliferation, AlamarBlue fluorescent assay, HMEC normal control; assay type: cell-based; details: for inhibitory effects on normal HMEC cells: 10 uM, up to 48 hours; for IC50: Homo sapiens, HMEC, 48 hours, AlamarBlue, normal cell line
Procedure: as §1
The proliferation inhibition potential of cis- and trans-gnetin H was determined by a fluorescence dye staining method. Cells were seeded in a 96-well tissue culture-treated plate (BD Falcon) at a density of 4000 cells/well, and treated with cis- or trans-gnetin H for 48 hours. AlamarBlue dye (Invitrogen) was used to assess the viability of cells according to the manufacturer's instructions; the fluorescent intensity was read on a SpectraMax M2e microplate reader (Molecular Devices Inc.).
For the determination of IC50 values, cells were treated with a serial dilution (320 μM, 100 μM, 32 μM, 10 μM, 3.2 μM, and 0.32 μM) of cis- or trans-gnetin H for 48 hours. Cell viability was determined with AlamarBlue dye (Invitrogen) and the IC50 values were calculated using non-linear regression analysis.

A549 cells = test: Multi-parameter cytotoxicity measurement, Arrayscan VTI HCS Reader; assay type: cell-based, human; details: for mitochondria transmembrane potential: A549, after both 24 hrs and 48 hrs
Procedure: A549 cells were seeded in a 96-well plate (BD Falcon) at a density of 4000 cells/well, and then treated with different concentrations ([…] 100 μM) of cis- or trans-gnetin H for 24 hours and 48 hours. Non-treated cells and cells treated with 100 μM Valinomycin were used as negative and positive controls. After treatment, the cells were stained with a mixture of fluorescent dyes including Hoechst 33342 (blue florescence), cell permeability dye (green florescence) and mitochondrial membrane potential dye (red florescence) (Thermo Scientific). The three dyes allow changes in nuclear morphology, cell membrane permeability and mitochondrial trans-membrane potential to be determined. The cells were fixed and washed, and images for each fluoroprobe were acquired at different channels using suitable filters with a 20× objective and analyzed on the Arrayscan VTI HCS Reader (Thermo Scientific). The Cell Health Profiling BioApplication software (Thermo Scientific) was used for image acquisition and analysis. For each well, at least 400 cells were automatically acquired and analyzed. The average fluorescent intensity was used to quantify changes in each channel and each experiment was performed in triplicate.

[4] = tested on: mitochondrial cytochrome c in A549 cells; test: Analysis of cytochrome c by flow cytometry, A549; assay type: cell-based, human; details: 100 μM, 24 hours
Procedure: A549 and BT20 cells were seeded in a 96-well plate (BD Falcon) at a density of 8000 cells/well and treated with 100 μM of cis- or trans-gnetin H for 24 hours. The expression of cytochrome c was evaluated using the FlowCellect Cytochrome c Kit (Millipore) according to the manufacturer's instructions. Cells were stained with either Anti-IgG1-FITC Isotype control or Anti-Cytochrome c-FITC, and data was acquired and analyzed using the Guava Flow Cytometer (Millipore).

BT20 cells [5] = test: Cell cycle analysis by flow cytometry, BT20; assay type: cell-based, human; details: 100 μM, 24 hours
Procedure: A549 and BT20 cells were first synchronized in the G0 phase by culturing cells for 24 hours in serum-free medium and then treated with 100 μM cis- or trans-gnetin H for 24 hours, respectively. Cell cycle analysis was done using propidium iodide (PI) staining as described (An et al., Mol. Cancer Ther. 2007; 6:61-9) and the cells were analyzed on a Guava Flow Cytometer with InCyte software (Millipore).

BT20 cells [6] = test: Apoptosis assay by flow cytometry, BT20; assay type: cell-based, human; details: 100 μM, 24 hours
Procedure: A549 and BT20 cells were seeded in a 96-well plate (BD Falcon) at a density of 8000 cells/well, and treated with cis- or trans-gnetin H for 24 hours. Apoptosis was assessed using Annexin V/7-AAD double staining as described (Bai et al., Cancer Sci. 2010; 101(2):488-493). Cells were analyzed on a Guava Flow Cytometer (Millipore) using InCyte software and the data was exported to FlowJo software for image display.

IC50 [1]: 9.32 µM | IC50 [2]: 19 µM
Structure (SMILES): Oc1ccc(/C=C\c2c3c(cc4c2[C@H](c2cc(O)cc(O)c2)[C@@H](c2ccc(O)cc2)O4)O[C@H](c2ccc(O)cc2)[C@H]3c2cc(O)cc(O)c2)cc1 [cis-gnetin H]
inhibition of TNF-α [2]: significant inhibition | inhibitory effects on normal HMEC cells [3]: no such obvious inhibitory effects | IC50 [3]: 26.7 µM | nuclear size (A549 cells; A549, 24 hrs treatment): no alternation in nuclear size | nuclear size (A549 cells; A549, 48 hrs treatment): reduction in nuclear size | mitochondria transmembrane potential (A549 cells): reduction in the mitochondria transmembrane potential | cytochrome c release in A549 [4]: release of mitochondrial cytochrome c | G0-G1 subpopulation, BT20 (BT20 cells [5]): increased significantly | M and G2-S subpopulation, BT20 (BT20 cells [5]): significant decrease | apoptosis induction in BT20 (BT20 cells [6]): induce apoptosis

IC50 [1]: 3.1 µM | IC50 [2]: 6 µM
Structure (SMILES): Oc1ccc(/C=C/c2c3c(cc4c2[C@H](c2cc(O)cc(O)c2)[C@@H](c2ccc(O)cc2)O4)O[C@H](c2ccc(O)cc2)[C@H]3c2cc(O)cc(O)c2)cc1 [trans-gnetin H]
inhibition of TNF-α [2]: significant inhibition | inhibitory effects on normal HMEC cells [3]: no such obvious inhibitory effects | IC50 [3]: 25.9 µM | nuclear size (A549 cells; A549, 24 hrs treatment): no alternation in nuclear size | nuclear size (A549 cells; A549, 48 hrs treatment): reduction in nuclear size | mitochondria transmembrane potential (A549 cells): reduction in the mitochondria transmembrane potential | cytochrome c release in A549 [4]: release of mitochondrial cytochrome c | G0-G1 subpopulation, BT20 (BT20 cells [5]): increased significantly | M and G2-S subpopulation, BT20 (BT20 cells [5]): significant decrease | apoptosis induction in BT20 (BT20 cells [6]): induce apoptosis
